Experiments:
[1] = target: T1, hAChE (recombinant human AChE; AChE from human erythrocytes in Table 1) (Homo sapiens, UniProt P22303); experiment: Ellman assay, […] nm; type: biochemical
T1 construct: commercial recombinant human AChE (Sigma-Aldrich) per methods

[2] = target: T2, hBChE (BChE from human plasma; serum hBChE) (Homo sapiens, UniProt P06276); experiment: Ellman assay, […] nm; type: biochemical
T2 construct: native, commercial from human plasma / serum (Sigma-Aldrich)
T2 sequence (P06276 29-602): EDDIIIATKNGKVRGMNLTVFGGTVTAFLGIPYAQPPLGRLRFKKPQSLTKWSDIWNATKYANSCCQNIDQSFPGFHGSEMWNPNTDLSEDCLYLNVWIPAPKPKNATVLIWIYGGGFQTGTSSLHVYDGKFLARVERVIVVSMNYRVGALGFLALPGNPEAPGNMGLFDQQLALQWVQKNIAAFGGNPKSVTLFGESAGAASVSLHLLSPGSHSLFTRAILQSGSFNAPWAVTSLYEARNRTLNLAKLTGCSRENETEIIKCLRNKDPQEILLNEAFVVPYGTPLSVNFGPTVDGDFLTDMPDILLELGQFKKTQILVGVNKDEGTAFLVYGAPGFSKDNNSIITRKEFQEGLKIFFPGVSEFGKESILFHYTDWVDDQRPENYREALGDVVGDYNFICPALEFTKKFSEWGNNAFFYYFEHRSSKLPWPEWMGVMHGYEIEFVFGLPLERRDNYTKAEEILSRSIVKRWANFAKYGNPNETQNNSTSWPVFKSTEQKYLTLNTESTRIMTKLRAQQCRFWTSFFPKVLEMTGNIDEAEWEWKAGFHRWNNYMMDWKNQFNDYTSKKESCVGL

T1 sequence (P22303 32-614): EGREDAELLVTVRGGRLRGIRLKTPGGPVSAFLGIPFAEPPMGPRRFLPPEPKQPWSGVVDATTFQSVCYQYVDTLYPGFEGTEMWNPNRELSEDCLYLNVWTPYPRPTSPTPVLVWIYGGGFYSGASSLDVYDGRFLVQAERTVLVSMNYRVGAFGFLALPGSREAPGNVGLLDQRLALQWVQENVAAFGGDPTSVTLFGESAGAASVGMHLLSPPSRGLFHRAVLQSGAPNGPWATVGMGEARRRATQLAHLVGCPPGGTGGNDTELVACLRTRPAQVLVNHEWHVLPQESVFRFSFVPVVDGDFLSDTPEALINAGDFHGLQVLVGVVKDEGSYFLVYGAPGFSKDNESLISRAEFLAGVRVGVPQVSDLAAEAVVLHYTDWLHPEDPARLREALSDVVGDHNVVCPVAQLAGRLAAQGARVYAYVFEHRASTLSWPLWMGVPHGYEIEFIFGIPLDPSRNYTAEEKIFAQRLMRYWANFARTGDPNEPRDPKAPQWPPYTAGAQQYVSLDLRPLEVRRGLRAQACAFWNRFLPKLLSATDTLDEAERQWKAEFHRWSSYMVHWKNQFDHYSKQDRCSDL

Row | Compound | IC50 [1] [nM] | IC50 [2] [nM]
1 | CCN(CCCCn1c(C)cc(=O)n(CCCCN(CC)Cc2ccccc2C#N)c1=O)Cc1ccccc1C#N [2a, 1,3-bis[4-(o-Nitrilebenzylethylamino)butyl]-6-methyluracil] | 7 ± 0.5 | 65000
2 | CCN(CCCCn1c(=O)c2ccccc2n(CCCCN(CC)Cc2ccccc2C#N)c1=O)Cc1ccccc1C#N [4a, 1,3-bis[4-(o-Nitrilebenzylethylamino)butyl]-quinazoline-2,4-dione] | 5520 ± 400 | 2620 ± 200
3 | Cc1cc(=O)n(CCCCCNCc2ccccc2C#N)c(=O)n1CCCCCNCc1ccccc1C#N [compound 3, 1,3-bis[5-(o-Nitrilebenzylamino)pentyl]-6-methyluracil] | 480 ± 30 | 1800 ± 170
4 | Cc1cc(=O)n(CCCCCN=Cc2ccccc2C#N)c(=O)n1CCCCCN=Cc1ccccc1C#N [compound 13, 1,3-bis[5-(o-Nitrilebenzyl)aldiminopentyl]-6-methyluracil] | 2320 ± 170 | 2160 ± 150

From article PMC7571187, “Novel Acetylcholinesterase Inhibitors Based on Uracil Moiety for Possible Treatment of Alzheimer Disease” (Molecules, 2020)
